What was measured:
[1] = test system: Adriamycin resistant strain 2780 AD cells of human ovarian cancer A2780 cells; assay: Potentiating effect on incorporation of 3H-vincristine into adriamycin-resistant cancer cells; format: cell-based; details: 20 nM 3H-vincristine; for activity at 1 µg/mL / activity at 10 µg/mL: Homo sapiens, 2780AD, 2 h, control = 100, read-out: 3H-vincristine accumulation; for activity at 10 µg/mL: compound 10 μg/ml
Method: Potentiating Effect of the Compounds on Incorporation of Anticancer Drugs into Drug-resistant Cancer Cells
Adriamycin resistant strain 2780 AD cells of human ovarian cancer A2780 cells (A. M. Rogan et al., Science 224, 994-996, 1984) were suspended at a concentration of 1×10^6 /ml in RPMI-1640 medium supplemented with 5% fetal calf serum, and 1 ml of the cancer cell suspension was dispensed into each well of a multi-well culture plate (24 wells, […] in diameter) and then incubated at 37° C. in an atmosphere of 5% CO2. After 24 hours incubation, the medium in each well was replaced by 0.5 ml of RPMI-1640 medium supplemented containing 20 nM ^3 H-vincristine (1×10^4 dpm/pmol), 5% fetal calf serum and 10 mM Hepes buffer. Five microliters of a solution of the compound to be tested, which had been dissolved in DMSO and diluted with […] (at a concentration of 1.0 microgram/ml or 10.0 micrograms/ml), was added to each well and the incubation was continued at 37° C. in 5% CO2 for 2 hours. The resultant cells were washed in cold saline-phosphate buffer. In each well was added 0.5 ml of 0.2N NaOH, and the resulting cell suspension in each well was independently transferred into a vial and then heated in a water bath at 56° C. for 30-60 minutes to dissolve the cells. After adding 4 ml of acid aquazole 2, the amount of ^3 H-vincristine incorporated into the cells was determined by a fluid scintillation counter.

[2] = test system: Vincristine-resistant strain P388/VCR cells of mouse leukemia P388 cells; assay: Potentiating effect on vincristine in mice having vincristine-resistant mouse leukemia (survival); format: in vivo, mouse (female CDFI mice); details: compound 30 mg/kg + vincristine 100 ug/kg, peritoneal, once a day for 5 days; for T/C (rate of life prolongation): control = 100

Structure (SMILES): OC(COc1cccc2ncccc12)CN1CCN(C(c2ccc(F)cc2)c2ccc(F)cc2)CC1 (centres unmarked) [Example 57, 5-(3-[4-(Bis(4-fluorophenyl)methyl)piperazine-1-yl]-2-hydroxypropoxy)quinoline]
- activity at 1 µg/mL ([1]; compound 1 μg/ml): 572%
- activity at 10 µg/mL [1]: 732%
- Average surviving period [2]: 13.1 ± 0.4 days
- T/C (rate of life prolongation) [2]: 124%

Structure (SMILES): OC(COc1cccc2ncccc12)CN1CCN(C(c2ccccc2)c2ccc(Cl)cc2)CC1 (centres unmarked) [Example 58, 5-(3-[4-((4-Chlorophenyl)-phenylmethyl)piperazine-1-yl]-2-hydroxypropoxy)quinoline]
- activity at 1 µg/mL ([1]; compound 1 μg/ml): 619%
- activity at 10 µg/mL [1]: 843%
- Average surviving period [2]: 13.8 ± 1.8 days
- T/C (rate of life prolongation) [2]: 130%

Structure (SMILES): OC(COc1cccc2ncccc12)CN1CCC(C(O)(c2ccccc2)c2ccccc2)CC1 (centres unmarked) [Example 7, 5-[3-(4-(Diphenyl-hydroxymethyl)piperidine-1-yl)-2-hydroxypropoxy]quinoline]
- activity at 1 µg/mL ([1]; compound 1 μg/ml): 972%
- Average surviving period [2]: 12.9 ± 0.5 days
- T/C (rate of life prolongation) [2]: 123%

Structure (SMILES): OC(CNc1cccc2ncccc12)CN1CCN(C(c2ccccc2)c2ccccc2)CC1 (centres unmarked) [Example 27, 5-[3-(4-Diphenylmethylpiperazine-1-yl)-2-hydroxypropylamino]quinoline]
- Average surviving period [2]: 12.3 ± 0.3 days
- T/C (rate of life prolongation) [2]: 119%

Structure (SMILES): CN(C(=O)CCN1CCN(C2c3ccccc3CCc3ccccc32)CC1)c1cccc2ncccc12 [Example 38, 5-[N-methyl-(3-(4-dibenzosuberanylpiperazine-1-yl)-propionamide)]quinoline]
- activity at 1 µg/mL ([1]; compound 1 μg/ml): 378%
- activity at 10 µg/mL [1]: 819%

Structure (SMILES): OC(COc1cccc2ncccc12)CN1CCC(C(c2ccccc2)c2ccccc2)CC1 (centres unmarked) [Example 14, 5-[3-(4-(Diphenylmethyl)piperidine-1-yl)-2-hydroxypropoxy]quinoline]
- activity at 1 µg/mL ([1]; compound 1 μg/ml): 119%
- activity at 10 µg/mL [1]: 871%

Structure (SMILES): c1ccc(C(c2ccccc2)N2CCN(CCCCOc3cccc4ncccc34)CC2)cc1 [Example 33, 5-[4-(4-Diphenylmethylpiperazine-1-yl)butoxy]quinoline]
- activity at 1 µg/mL ([1]; compound 1 μg/ml): 447%

Structure (SMILES): OC(COc1cccc2ncccc12)CN1CCN(C2c3ccccc3Oc3ccccc32)CC1 (centres unmarked) [Example 72, 5-[3-(4-(Xanthene-9-yl)piperazine-1-yl)-2-hydroxypropoxy]quinoline]
- activity at 1 µg/mL ([1]; compound 1 μg/ml): 112%
- activity at 10 µg/mL [1]: 144%

Structure (SMILES): OC(CSc1cccc2ncccc12)CN1CCN(C2c3ccccc3CCc3ccccc32)CC1 (centres unmarked) [Example 75, 5-[3-(4-(Dibenzosuberane-5-yl)piperazine-1-yl)-2-hydroxy-propylthio]quinoline]
- activity at 1 µg/mL ([1]; compound 1 μg/ml): 587%

Structure (SMILES): OC(COc1cccc2ncccc12)CN1CCC(=C2c3ccccc3C=Cc3ccccc32)CC1 (centres unmarked) [Example 77, 5-[3-(4-(Dibenzosuberene-5-ylidene)piperidine-1-yl)2-hydroxypropoxy]quinoline]
- Average surviving period [2]: 13.8 ± 1.2 days
- T/C (rate of life prolongation) [2]: 129%

Structure (SMILES): Cc1ccc2ncccc2c1OCC(O)CN1CCN(C(c2ccccc2)c2ccccc2)CC1 (centres unmarked) [Example 23, 5-[3-(4-Diphenylmethylpiperazine-1-yl)-2-hydroxypropoxy]-6-methylguinoline]
- activity at 1 µg/mL ([1]; compound 1 μg/ml): 723%

Structure (SMILES): CC(=O)N(CC(O)CN1CCN(C(c2ccccc2)c2ccccc2)CC1)c1cccc2ncccc12 (centres unmarked) [Example 40, 5-[N-Acetyl-(3-(4-diphenylmethylpiperazine-1-yl)-2-hydroxypropylamino)]quinoline]
- activity at 1 µg/mL ([1]; compound 1 μg/ml): 259%

Structure (SMILES): OC(COc1cccc2cnccc12)CN1CCCN(C(c2ccccc2)c2ccccc2)CC1 (centres unmarked) [Example 45, 5-[3-(4-Diphenylmethylhomopiperazine-1-yl)-2-hydroxypropoxy]isoquinoline]
- activity at 1 µg/mL ([1]; compound 1 μg/ml): 307%
- activity at 10 µg/mL [1]: 982%

Structure (SMILES): OC(COc1cccc2ncccc12)CN1CCC(C2(O)c3ccccc3C=Cc3ccccc32)CC1 (centres unmarked) [Example 79, 5-[2-Hydroxy-3-(4-(5-hydroxydibenzosuberene-5-yl)piperidine-1-yl)propoxy]quinoline]
- activity at 1 µg/mL ([1]; compound 1 μg/ml): 841%
- activity at 10 µg/mL [1]: 963%

Structure (SMILES): CSc1ccc2c(OCC(O)CN3CCN(C(=O)C(c4ccccc4)c4ccccc4)CC3)cccc2n1 (stereo not drawn) [Example 65, 2-Methylthio-5-[3-(4-(α,α-diphenylacetyl)piperazine-1-yl)-2-hydroxypnopoxy]quinoline]
- activity at 1 µg/mL ([1]; compound 1 μg/ml): 297%
- activity at 10 µg/mL [1]: 985%

Structure (SMILES): OC(COc1cccc2cnccc12)CN1CCN(C(c2ccccc2)c2ccccc2)CC1 (centres unmarked) [Example 43, 5-[3-(4-Diphenylmethylpiperazine-1-yl)-2-hydroxypropoxy]isoquinoline]
- activity at 1 µg/mL ([1]; compound 1 μg/ml): 531%

Structure (SMILES): CC(=O)OC(CN1CCN(C(c2ccccc2)c2ccccc2)CC1)CN(C(C)=O)c1cccc2ncccc12 (centres unmarked) [Example 39, 5-[N-Acetyl-(2-acetoxy-3-(4-diphenylmethylpiperazine-1-yl)propylamino)]quinoline]
- activity at 1 µg/mL ([1]; compound 1 μg/ml): 236%
- activity at 10 µg/mL [1]: 908%

Structure (SMILES): OC(CSc1cccc2ncccc12)CN1CCN(C(c2ccccc2)c2ccccc2)CC1 (centres unmarked) [Example 31, 5-[3-(4-Diphenylmethylpiperazine-1-yl)-2-hydroxypropylthio]quinoline]
- activity at 10 µg/mL [1]: 799%
- 3H-vincristine accumulation ([1]; compound 1 μg/ml, 2 hours, control = 100, 120 min): 428%

Structure (SMILES): OC(CNCC(c1ccccc1)c1ccccc1)COc1cccc2ncccc12 (centres unmarked) [Example 70, 5-[3-(2,2-Diphenylethylamino)-2-hydroxypropoxy]quinoline]
- activity at 1 µg/mL ([1]; compound 1 μg/ml): 252%
- activity at 10 µg/mL [1]: 960%

Structure (SMILES): OC(COc1cccc2ccncc12)CN1CCN(C(c2ccccc2)c2ccccc2)CC1 (centres unmarked) [Example 47, 8-[3-(4-Diphenylmethylpiperazine-1-yl)-2-hydroxypropoxy]isoquinoline]
- activity at 1 µg/mL ([1]; compound 1 μg/ml): 322%
- activity at 10 µg/mL [1]: 879%

Structure (SMILES): OC(CNCCC(c1ccccc1)c1ccccc1)COc1cccc2ncccc12 (centres unmarked) [Example 69, 5-[3-(3,3-Diphenylpropylamino)-2-hydroxypropoxy]quinoline]
- activity at 1 µg/mL ([1]; compound 1 μg/ml): 738%
- activity at 10 µg/mL [1]: 941%

Structure (SMILES): CS(=O)(=O)c1ccc2c(OCC(O)CN3CCN(C4c5ccccc5CCc5ccccc54)CC3)cccc2n1 (centres unmarked) [Example 71, 2-Methylsufonyl-5-[3-(4-(dibenzosuberane-5-yl)piperazine-1-yl)-2-hydroxypropoxy]quinoline]
- activity at 1 µg/mL ([1]; compound 1 μg/ml): 501%
- activity at 10 µg/mL [1]: 921%

Structure (SMILES): OC(COc1cccc2nc(C(F)(F)F)cc(C(F)(F)F)c12)CN1CCN(C2c3ccccc3CCc3ccccc32)CC1 (centres unmarked) [Example 76, 5-[3-(4-(Dibenzosuberane-5-yl)piperazine-1-yl)-2-hydroxypropoxy]-2,4-bis(trifluoromethyl)quinoline]
- activity at 1 µg/mL ([1]; compound 1 μg/ml): 130%
- activity at 10 µg/mL [1]: 304%

Structure (SMILES): Cc1cc(C)c2c(OCC(O)CN(C)CCN(C)C3c4ccccc4CCc4ccccc43)cccc2n1 (centres unmarked) [Example 66, 2,4-Dimethyl-5-[3-(N,N'-dimethyl-N'-(dibenzosuberane-5-yl)ethylenediamino)-2-hydroxypropoxy]quinoline]
- activity at 1 µg/mL ([1]; compound 1 μg/ml): 488%

Structure (SMILES): OC(COc1cccc2ncccc12)CN1CCN(C(c2ccccc2)c2ccncc2)CC1 (centres unmarked) [Example 52, 5-(3-[4-((4-Pyridyl) -phenylmethyl)piperazine-1-yl]-2-hydroxypropoxy)quinoline]
- activity at 1 µg/mL ([1]; compound 1 μg/ml): 379%
- activity at 10 µg/mL [1]: 910%

Structure (SMILES): OC(CNCCNC1c2ccccc2CCc2ccccc21)COc1cccc2ncccc12 (centres unmarked) [Example 62, 5-[3-(N'-(Dibenzosuberane-5-yl)ethylenediamino)-2-hydroxypropoxy]quinoline]
- activity at 1 µg/mL ([1]; compound 1 μg/ml): 525%

Structure (SMILES): OC(COc1cccc2ncccc12)CN1CCN(C2c3ccccc3COc3ccccc32)CC1 (centres unmarked) [Example 6, 5-[3-(4-(6,11-Dihydrodibenzo[b,e]oxepine-11-yl)piperazine-1-yl)-2-hydroxypropoxy]quinoline]
- Average surviving period [2]: 13.4 ± 0.7 days
- T/C (rate of life prolongation) [2]: 128%

Structure (SMILES): OC(COc1cccc2ncncc12)CN1CCN(C(c2ccccc2)c2ccccc2)CC1 (centres unmarked) [Example 51, 5-[3-(4-Diphenylmethylpiperazine-1-yl)-2-hydroxypropoxy]quinazoline]
- activity at 1 µg/mL ([1]; compound 1 μg/ml): 534%
- activity at 10 µg/mL [1]: 798%

Structure (SMILES): OC(COc1ccc(Cl)c2ncccc12)CN1CCN(C(c2ccccc2)c2ccccc2)CC1 (centres unmarked) [Example 29, 5-[3-(4-Diphenylmethylpiperazine-1-yl)-2-hydroxypropoxy]-8-chloroquinoline]
- activity at 1 µg/mL ([1]; compound 1 μg/ml): 246%

Structure (SMILES): CN(C(=O)CCN1CCN(C(c2ccccc2)c2ccccc2)CC1)c1cccc2ncccc12 [Example 37, 5-[N-Methyl-(3-(4-diphenylmethylpiperazine-1-yl)propionamido)]quinoline]
- activity at 1 µg/mL ([1]; compound 1 μg/ml): 549%
- activity at 10 µg/mL [1]: 1000%

Structure (SMILES): Cc1cc(C(F)(F)F)nc2cccc(OCC(O)CN3CCN(C4c5ccccc5CCc5ccccc54)CC3)c12 (centres unmarked) [Example 54, 2-Trifluoromethyl-4-methyl-5-[3-(4-(dibenzosuberane-5-yl)piperazine-1-yl)-2-hydroxypropoxy]quinoline]
- activity at 1 µg/mL ([1]; compound 1 μg/ml): 253%
- activity at 10 µg/mL [1]: 777%

From US5405843A, “Quinoline derivatives” (Mitsui Toatsu Chemicals, Incorporated, priority 1988, dated 1995)
